Data as given in the supplement of paper PMC10307832.

Key:
Assay in all cases: relative viability (nuclei count vs DMSO), 5 days (fraction); higher = more cells survive
COR-L 105 = test system: COR-L 105
Summary of the method: (§1)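 Dosing by pin tool came one day after lung cancer cell lines were seeded in 1536-well plates, using either one drug or a fixed anchor-drug dose plus five library-drug doses (not always all listed) in √10 steps. After 5 days, nuclei were counted on 4× images. Relative viability is treated-well nuclei count divided by vehicle-well nuclei count, and values are medians of duplicate plates.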

NCI-H650 = test system: NCI-H650
Summary of the method: as §1

NCI-H1993 = test system: NCI-H1993
Summary of the method: as §1

LXF-289 = test system: LXF-289
Summary of the method: as §1

H3255 = test system: H3255
Summary of the method: as §1

NCI-H2087 = test system: NCI-H2087
Summary of the method: as §1

HCC-78 = test system: HCC-78
Summary of the method: as §1

NCI-H2126 = test system: NCI-H2126
Summary of the method: as §1

EMC-BAC-2 = test system: EMC-BAC-2
Summary of the method: as §1

NCI-H2170 = test system: NCI-H2170
Summary of the method: as §1

HOP-62 = test system: HOP-62
Summary of the method: as §1

SK-MES-1 = test system: SK-MES-1
Summary of the method: as §1

NCI-H1563 = test system: NCI-H1563
Summary of the method: as §1

201T = test system: 201T
Summary of the method: as §1

LC-2-ad = test system: LC-2-ad
Summary of the method: as §1

UMC-11 = test system: UMC-11
Summary of the method: as §1

BEN = test system: BEN
Summary of the method: as §1

NCI-H1395 = test system: NCI-H1395
Summary of the method: as §1

RERF-LC-KJ = test system: RERF-LC-KJ
Summary of the method: as §1

HARA = test system: HARA
Summary of the method: as §1

LU99A = test system: LU99A
Summary of the method: as §1

LOU-NH91 = test system: LOU-NH91
Summary of the method: as §1

CN1CCN(CCOc2cc(OC3CCOCC3)c3c(Nc4c(Cl)ccc5c4OCO5)ncnc3c2)CC1 [Saracatinib] + Cc1nc(NC(=O)N2CCC[C@H]2C(N)=O)sc1-c1ccnc(C(C)(C)C(F)(F)F)c1 [Alpelisib] (partner 2 µM)
relative viability (COR-L 105; first compound 0.02 µM): 0.91
relative viability (COR-L 105; first compound 0.2 µM): 0.96
relative viability (COR-L 105; first compound 0.6325 µM): 0.7
relative viability (COR-L 105; first compound 2 µM): 0.416
relative viability (NCI-H650; first compound 0.02 µM): 1.14
relative viability (NCI-H650; first compound 0.2 µM): 0.814
relative viability (NCI-H650; first compound 0.6325 µM): 1.21
relative viability (NCI-H650; first compound 2 µM): 1.13
relative viability (NCI-H1993; first compound 0.02 µM): 0.68
relative viability (NCI-H1993; first compound 0.2 µM): 0.531
relative viability (NCI-H1993; first compound 2 µM): 0.656
relative viability (LXF-289; first compound 0.02 µM): 1.03
relative viability (LXF-289; first compound 0.2 µM): 0.908
relative viability (LXF-289; first compound 0.6325 µM): 1.02
relative viability (LXF-289; first compound 2 µM): 0.985
relative viability (H3255; first compound 0.02 µM): 0.624
relative viability (H3255; first compound 0.2 µM): 0.556
relative viability (H3255; first compound 0.6325 µM): 0.366
relative viability (H3255; first compound 2 µM): 0.166
relative viability (NCI-H2087; first compound 0.02 µM): 1.13
relative viability (NCI-H2087; first compound 0.2 µM): 0.934
relative viability (NCI-H2087; first compound 0.6325 µM): 1.41
relative viability (NCI-H2087; first compound 2 µM): 1.04
relative viability (HCC-78; first compound 0.02 µM): 0.29
relative viability (HCC-78; first compound 0.2 µM): 0.328
relative viability (HCC-78; first compound 0.6325 µM): 0.479
relative viability (HCC-78; first compound 2 µM): 0.323
relative viability (NCI-H2126; first compound 0.02 µM): 0.751
relative viability (NCI-H2126; first compound 0.2 µM): 0.654
relative viability (NCI-H2126; first compound 0.6325 µM): 0.749
relative viability (NCI-H2126; first compound 2 µM): 0.622
relative viability (EMC-BAC-2; first compound 0.02 µM): 0.778
relative viability (EMC-BAC-2; first compound 0.2 µM): 0.657
relative viability (EMC-BAC-2; first compound 0.6325 µM): 0.697
relative viability (EMC-BAC-2; first compound 2 µM): 0.578
relative viability (NCI-H2170; first compound 0.02 µM): 0.731
relative viability (NCI-H2170; first compound 0.2 µM): 0.749
relative viability (NCI-H2170; first compound 0.6325 µM): 0.752
relative viability (NCI-H2170; first compound 2 µM): 0.464
relative viability (HOP-62; first compound 0.02 µM): 0.989
relative viability (HOP-62; first compound 0.2 µM): 0.782
relative viability (HOP-62; first compound 0.6325 µM): 0.801
relative viability (HOP-62; first compound 2 µM): 0.749
relative viability (SK-MES-1; first compound 0.02 µM): 0.713
relative viability (SK-MES-1; first compound 0.2 µM): 0.77
relative viability (SK-MES-1; first compound 0.6325 µM): 0.76
relative viability (SK-MES-1; first compound 2 µM): 0.644
relative viability (NCI-H1563; first compound 0.02 µM): 0.992
relative viability (NCI-H1563; first compound 0.2 µM): 0.882
relative viability (NCI-H1563; first compound 0.6325 µM): 0.725
relative viability (NCI-H1563; first compound 2 µM): 0.693
relative viability (201T; first compound 0.02 µM): 1.09
relative viability (201T; first compound 0.2 µM): 0.865
relative viability (201T; first compound 0.6325 µM): 0.856
relative viability (201T; first compound 2 µM): 0.772
relative viability (LC-2-ad; first compound 0.02 µM): 0.903
relative viability (LC-2-ad; first compound 0.6325 µM): 0.882
relative viability (LC-2-ad; first compound 2 µM): 0.691
relative viability (UMC-11; first compound 0.02 µM): 0.99
relative viability (UMC-11; first compound 0.6325 µM): 1.03
relative viability (UMC-11; first compound 2 µM): 0.768
relative viability (BEN; first compound 0.02 µM): 1.08
relative viability (BEN; first compound 0.2 µM): 1.03
relative viability (BEN; first compound 0.6325 µM): 1.07
relative viability (BEN; first compound 2 µM): 0.85
relative viability (NCI-H1395; first compound 0.02 µM): 1.6
relative viability (NCI-H1395; first compound 0.2 µM): 1.06
relative viability (NCI-H1395; first compound 0.6325 µM): 0.956
relative viability (NCI-H1395; first compound 2 µM): 0.851
relative viability (RERF-LC-KJ; first compound 0.02 µM): 0.894
relative viability (RERF-LC-KJ; first compound 0.2 µM): 0.954
relative viability (RERF-LC-KJ; first compound 0.6325 µM): 0.831
relative viability (RERF-LC-KJ; first compound 2 µM): 0.662
relative viability (HARA; first compound 0.02 µM): 0.904
relative viability (HARA; first compound 0.6325 µM): 0.707
relative viability (HARA; first compound 2 µM): 0.513
relative viability (LU99A; first compound 0.02 µM): 0.568
relative viability (LU99A; first compound 0.2 µM): 0.371
relative viability (LU99A; first compound 0.6325 µM): 0.513
relative viability (LU99A; first compound 2 µM): 0.417
relative viability (LOU-NH91; first compound 0.02 µM): 0.683
relative viability (LOU-NH91; first compound 0.2 µM): 0.5
relative viability (LOU-NH91; first compound 0.6325 µM): 0.554
relative viability (LOU-NH91; first compound 2 µM): 0.449
